Consider 6 molecules from ChEMBL document CHEMBL2169792, “Synthesis of new 4-thiazolidinone-, pyrazoline-, and isatin-based conjugates with promising antitumor activity” (J Med Chem, 2012).

For orientation: GI50 means the concentration at which growth is held to half of that of the control. Read a high GI50 as less potent growth inhibition. In general, TGI refers to the concentration giving total growth inhibition. A low value points to greater sensitivity of the cells. As a reminder, the LC50 is the concentration that kills 50% of the test population. The low end stands for greater toxicity, the high end for lower toxicity.

Common to all, as to format: functional
The subject of one assay is NCI-H522. Nature of the assay: Cytotoxicity against human NCI-H522 cells assessed as cell growth at 10 uM after 48 hrs by SRB assay. The settings on record: NCI-H522, 48 h, read-out: Activity. Background: In SRB staining, fixed cells bind dye roughly in proportion to their protein.
A short description of assay [1]: Cytotoxicity against human non-small cell lung cancer cells after 48 hrs by SRB assay. The settings on record: Cancer cell lines; for CC50: read-out: LC50 (the source's name).
Assay [2] in a line: Cytotoxicity against human prostate cancer cells after 48 hrs by SRB assay. The settings on record: Cancer cell lines.
The nature of assay [3]: Cytotoxicity against human breast cancer cells after 48 hrs by SRB assay. The settings on record: Cancer cell lines.
A short description of assay [4]: Cytotoxicity against human renal cancer cells after 48 hrs by SRB assay. The settings on record: Cancer cell lines.
Assay [5] can be described thus: Cytotoxicity against human melanoma cells after 48 hrs by SRB assay. The settings on record: Melanoma cell; for CC50: read-out: LC50 (the source's name).
A short description of assay [6]: Cytotoxicity against human ovarian cancer cells after 48 hrs by SRB assay. The settings on record: Cancer cell lines.
Assay [7] can be described thus: Cytotoxicity against human CNS cancer cells after 48 hrs by SRB assay. The settings on record: Cancer cell lines.
A short description of assay [8]: Cytotoxicity against human colon cancer cells after 48 hrs by SRB assay. The settings on record: Cancer cell lines.
The nature of assay [9]: Cytotoxicity against human leukemia cells after 48 hrs by SRB assay. The settings on record: Leukemia cell; for CC50: read-out: LC50 (the source's name).
A further assay concerns U-251. Nature of the assay: Cytotoxicity against human U251 cells assessed as cell growth at 10 uM after 48 hrs by SRB assay. The settings on record: U-251, 48 h, read-out: Activity.

For `COc1ccc(-c2cc(-c3ccc(OC)cc3)n(C3C(=O)Nc4ccccc43)n2)cc1` (stereo not given), in the assay with NCI-H522, the growth at 10 µM was 87.5%.

Regarding `COc1ccc(-c2cc(-c3ccc(OC)cc3)n(C3C(=O)Nc4ccc(Cl)cc43)n2)cc1` (stereo not given), the growth at 10 µM with NCI-H522 is 82%.

Regarding `COc1ccc(C2=NN(C3=NC(=O)/C(=C4\C(=O)N(C)c5ccccc54)S3)C(c3ccc(Cl)cc3)C2)cc1` (stereo not given), in the assay with NCI-H522, the growth at 10 µM is 102%.

On to `Cc1ccc2c(c1)/C(=C1\SC(N3N=C(c4ccccc4)CC3c3ccc(Cl)cc3)=NC1=O)C(=O)N2` (stereo not given), for which the GI50 in assay [1] stood at 210 nM; in assay [2] it was 310 nM; in assay [3], 800 nM; in assay [4], 240 nM; in assay [5], 300 nM; in assay [6] it was 260 nM. Further, the GI50 in assay [7] came to 240 nM; in [8], 230 nM; in assay [9], 390 nM. Besides, the TGI in assay [1] was determined as 620 nM; in [3], 100000 nM; in assay [4] it was 520 nM; in assay [5], 670 nM; in assay [7], 320 nM; in assay [8], 350 nM. The molecule further yielded a TGI in assay [9] of 39400 nM. In addition, the CC50 worked out at 100000 nM in assay [1], 100000 nM in assay [5] and 85200 nM in assay [9]. For the same molecule, the LC50 in [2] and in assay [4] was 100000 nM each time. For the same molecule, the LC50 (concentration causing 50% net cell kill) in assay [3] and in [6] was 100000 nM in each case. In assay [7], this molecule yielded an LC50 (concentration giving 50% net cell kill) of 75200 nM. In addition, in assay [8], the LC50 (concentration lethal to 50% of cells) was found to be 100000 nM. Also, the growth at 10 µM with U-251 is -54%.

On to `COc1ccc(C2=NN(C3=NC(=O)/C(=C4\C(=O)Nc5ccc(Br)cc54)S3)C(c3ccc(OC)cc3)C2)cc1` (stereo not given), for which the GI50 in assay [1] amounted to 200 nM; in [2], 270 nM; in [3], 210 nM; in [4], 200 nM; in assay [5], 190 nM; in assay [6], 240 nM. Also, the GI50 in assay [7] stood at 200 nM; in assay [8], 200 nM; in [9], 280 nM. In addition, the TGI in assay [1] was determined as 430 nM; in assay [2], 710 nM; in assay [3], 480 nM; in assay [4], 380 nM; in assay [5], 410 nM; in assay [6], 32500 nM. The figures for the TGI in assay [7], in [8] and in [9] were 405 nM, 25300 nM and 62700 nM, respectively. Further, the figures for the CC50 in assay [1], in assay [5] and in assay [9] were 75200 nM, 17300 nM and 100000 nM, respectively. Besides, the LC50 turned out to be 100000 nM in assay [2] and 64600 nM in assay [4]. The LC50 (concentration causing 50% net cell kill) in [3] turned out to be 66900 nM; in assay [6], 78700 nM. The same molecule came in with an LC50 (concentration giving 50% net cell kill) in assay [7] of 70200 nM. Further, the LC50 (concentration lethal to 50% of cells) in [8] came to 50400 nM. Also, the growth at 10 µM in the assay on U-251 was 23.9%.

Consider `COc1ccc(C2=NN(C3=NC(=O)/C(=C4\C(=O)Nc5ccc(Cl)cc54)S3)C(c3ccc(Cl)cc3)C2)cc1` (stereo not given), for which the GI50 in assay [1] is 200 nM; in assay [2], 270 nM; in assay [3], 200 nM; in assay [4] it was 200 nM; in [5], 200 nM; in [6], 270 nM. Moreover, the GI50 amounted to 190 nM in assay [7], 210 nM in assay [8] and 270 nM in [9]. Moreover, the TGI in assay [1] stood at 460 nM; in assay [2], 740 nM; in assay [3] it was 470 nM; in assay [4], 460 nM; in assay [5], 440 nM; in assay [6], 7970 nM. Also, the figures for the TGI in assay [7], in assay [8] and in assay [9] were 430 nM, 450 nM and 890 nM, respectively. The values for the CC50 in [1], in assay [5] and in assay [9] were 7930 nM, 1210 nM and 91100 nM, respectively. Besides, the figures for the LC50 in [2] and in [4] were 76200 nM and 13800 nM, respectively. Also, the LC50 (concentration causing 50% net cell kill) in [3] stood at 25700 nM; in [6], 31300 nM. The LC50 (concentration giving 50% net cell kill) in [7] turned out to be 12700 nM. In assay [8], this molecule registered an LC50 (concentration lethal to 50% of cells) of 8200 nM. Besides, the growth at 10 µM with U-251 was -58%.
